Earlier results in PubChem BioAssay AID1259409 (Chemical Carcinogenesis Research Information System (CCRIS), 2018).

System: rodent chemically induced tumor inhibition, incidence and multiplicity
Assay: CCRIS tumor inhibitor studies
Conditions: Promoter: NONE USED

N#CSCc1ccccc1
tumour outcome (control, treated, inhibition, significance) (Carcinogen: 7,12-DIMETHYLBENZ[A]ANTHRACENE, 57-97-6, Dose [Inhibitor]: 0, 25 PPM IN DIET BEGINNING 2 WK PRIOR TO CARCINOGEN DOSE AND CONTINUING FOR 1 WK POST CARCINOGEN DOSE (STUDY DURATION:, Route [Inhibitor]: ORAL, Species: RAT, Strain/Sex: SPRAGUE-DAWLEY/FEMALE, Target Tissue: Type of Lesion: MAMMARY GLAND: TUMOR, Dose [Carcinogen]: 10 MG IN 1 ML OLIVE OIL ONCE AT 7 WK OF AGE): 19/21 (91%), 19/21 (91%), 0%
tumour outcome (control, treated, inhibition, significance) (Carcinogen: 7,12-DIMETHYLBENZ[A]ANTHRACENE, 57-97-6, Dose [Inhibitor]: 0.03 NMOL/G DIET DAILY FOR 17 WK STARTING 1 WK PRIOR TO CARCINOGEN TREATMENT AND CONTINUING THROUGH THE END OF THE STUDY, Route [Inhibitor]: ORAL, Species: RAT, Strain/Sex: SPRAGUE-DAWLEY/FEMALE, Target Tissue: Type of Lesion: MAMMARY GLAND: TUMOR, Dose [Carcinogen]: 12 MG IN 1 ML OLIVE OIL ONCE): 79%, 8%, 90%, p<0.001
tumour outcome (control, treated, inhibition, significance) (Carcinogen: 7,12-DIMETHYLBENZ[A]ANTHRACENE, 57-97-6, Dose [Inhibitor]: 5.0 MG/G DIET AT AGE 9 WK SIMULTANEOUSLY WITH CARCINOGEN, 3/WK FOR 4 WK (STUDY DURATION: 20 WK), Route [Inhibitor]: ORAL, Species: MOUSE, Strain/Sex: ICR/FEMALE, Target Tissue: Type of Lesion: FORESTOMACH: TUMOR, Dose [Carcinogen]: 0.05 MG/G DIET AT AGE 9 WK, 3/WK FOR 4 WK): 87%, 80%, 8%, not significant
tumour outcome (control, treated, inhibition, significance) (Carcinogen: 7,12-DIMETHYLBENZ[A]ANTHRACENE, 57-97-6, Dose [Inhibitor]: 50 MG ONCE 2 HR BEFORE DMBA TREATMENT (STUDY DURATION: 18 WK), Route [Inhibitor]: INTRAGASTRIC, Species: RAT, Strain/Sex: SPRAGUE-DAWLEY/FEMALE, Target Tissue: Type of Lesion: MAMMARY GLAND: TUMOR, Dose [Carcinogen]: 12 MG IN 1 ML OLIVE OIL AT AGE 7 WK 2 HR AFTER AGENT TREATMENT): 77%, 55%, 28%, not significant
tumour outcome (control, treated, inhibition, significance) (Carcinogen: 7,12-DIMETHYLBENZ[A]ANTHRACENE, 57-97-6, Dose [Inhibitor]: 50 MG ONCE 4 HR BEFORE DMBA TREATMENT (STUDY DURATION: 18 WK), Route [Inhibitor]: INTRAGASTRIC, Species: RAT, Strain/Sex: SPRAGUE-DAWLEY/FEMALE, Target Tissue: Type of Lesion: MAMMARY GLAND: TUMOR, Dose [Carcinogen]: 12 MG IN 1 ML OLIVE OIL AT AGE 7 WK 4 HR AFTER AGENT TREATMENT): 100%, 36%, 64%, p<0.001
tumour outcome (control, treated, inhibition, significance) (Carcinogen: BENZO[A]PYRENE, 50-32-8, Dose [Inhibitor]: 0, 0.045 UMOL/G DIET BEGINNING 1 WK PRIOR TO CARCINOGEN TREATMENT AND CONTINUING FOR 1 WK POST CARCINOGEN TREATMENT FOLL, Route [Inhibitor]: ORAL, Species: MOUSE, Strain/Sex: CD-1/FEMALE, Target Tissue: Type of Lesion: FORESTOMACH: PAPILLOMA, Dose [Carcinogen]: 1 MG IN 0.2 ML CORN OIL 2/WK FOR 4 WK): 85%, 84%, 1%, not significant
tumour outcome (control, treated, inhibition, significance) (Carcinogen: DIETHYLNITROSAMINE, 55-18-5, Dose [Inhibitor]: 0, 100 PPM IN DIET FOR DURATION OF STUDY BEGINNING 1 WK PRIOR TO CARCINOGEN DOSE (STUDY DURATION: 53 WK), Route [Inhibitor]: ORAL, Species: RAT, Strain/Sex: ACI/MALE, Target Tissue: Type of Lesion: LIVER: HEPATOCELLULAR ADENOMA, Dose [Carcinogen]: 200 MG/KG BW ONCE): 10/18 (55%), 6/16 (38%), 31%, not significant
tumour outcome (control, treated, inhibition, significance) (Carcinogen: DIETHYLNITROSAMINE, 55-18-5, Dose [Inhibitor]: 0, 100 PPM IN DIET FOR DURATION OF STUDY BEGINNING 1 WK PRIOR TO CARCINOGEN DOSE (STUDY DURATION: 53 WK), Route [Inhibitor]: ORAL, Species: RAT, Strain/Sex: ACI/MALE, Target Tissue: Type of Lesion: LIVER: HEPATOCELLULAR CARCINOMA, Dose [Carcinogen]: 200 MG/KG BW ONCE): 6/18 (33%), 2/16 (13%), 61%, not significant
tumour outcome (control, treated, inhibition, significance) (Carcinogen: METHYLAZOXYMETHANOL ACETATE, 592-62-1, Dose [Inhibitor]: 0, 100 PPM IN DIET FOR 4 WK BEGINNING 1 WK PRIOR TO CARCINOGEN TREATMENT (STUDY DURATION: 49 WK), Route [Inhibitor]: ORAL, Species: RAT, Strain/Sex: ACI/FEMALE, Target Tissue: Type of Lesion: COLON: CARCINOMA, Dose [Carcinogen]: 25 MG/KG BW 1/WK FOR 3 WK): 11/18 (61%), 10/12 (83%), -36%, not significant
tumour outcome (control, treated, inhibition, significance) (Carcinogen: METHYLAZOXYMETHANOL ACETATE, 592-62-1, Dose [Inhibitor]: 0, 100 PPM IN DIET FOR 4 WK BEGINNING 1 WK PRIOR TO CARCINOGEN TREATMENT (STUDY DURATION: 49 WK), Route [Inhibitor]: ORAL, Species: RAT, Strain/Sex: ACI/FEMALE, Target Tissue: Type of Lesion: SMALL INTESTINE: ADENOMA OR CARCINOMA, Dose [Carcinogen]: 25 MG/KG BW 1/WK FOR 3 WK): 11/18 (61%), 8/12 (67%), -10%, not significant
tumour outcome (control, treated, inhibition, significance) (Carcinogen: METHYLAZOXYMETHANOL ACETATE, 592-62-1, Dose [Inhibitor]: 0, 100 PPM IN DIET FOR 46 WK BEGINNING 1 WK POST CARCINOGEN TREATMENT (STUDY DURATION: 49 WK), Route [Inhibitor]: ORAL, Species: RAT, Strain/Sex: ACI/FEMALE, Target Tissue: Type of Lesion: COLON: ADENOMA OR CARCINOMA, Dose [Carcinogen]: 25 MG/KG BW 1/WK FOR 3 WK): 15/18 (83%), 18/19 (95%), -14%, not significant
tumour outcome (control, treated, inhibition, significance) (Carcinogen: METHYLAZOXYMETHANOL ACETATE, 592-62-1, Dose [Inhibitor]: 0, 100 PPM IN DIET FOR 46 WK BEGINNING 1 WK POST CARCINOGEN TREATMENT (STUDY DURATION: 49 WK), Route [Inhibitor]: ORAL, Species: RAT, Strain/Sex: ACI/FEMALE, Target Tissue: Type of Lesion: SMALL INTESTINE: ADENOMA OR CARCINOMA, Dose [Carcinogen]: 25 MG/KG BW 1/WK FOR 3 WK): 11/18 (61%), 8/19 (42%), 31%, not significant
tumour outcome (control, treated, inhibition, significance) (Carcinogen: METHYLAZOXYMETHANOL ACETATE, 592-62-1, Dose [Inhibitor]: 0, 400 PPM IN DIET FOR 4 WK BEGINNING 1 WK PRIOR TO CARCINOGEN TREATMENT (STUDY DURATION: 49 WK), Route [Inhibitor]: ORAL, Species: RAT, Strain/Sex: ACI/FEMALE, Target Tissue: Type of Lesion: COLON: ADENOMA OR CARCINOMA, Dose [Carcinogen]: 25 MG/KG BW 1/WK FOR 3 WK): 15/18 (83%), 17/21 (81%), 2%, not significant
tumour outcome (control, treated, inhibition, significance) (Carcinogen: METHYLAZOXYMETHANOL ACETATE, 592-62-1, Dose [Inhibitor]: 0, 400 PPM IN DIET FOR 4 WK BEGINNING 1 WK PRIOR TO CARCINOGEN TREATMENT (STUDY DURATION: 49 WK), Route [Inhibitor]: ORAL, Species: RAT, Strain/Sex: ACI/FEMALE, Target Tissue: Type of Lesion: SMALL INTESTINE: CARCINOMA, Dose [Carcinogen]: 25 MG/KG BW 1/WK FOR 3 WK): 10/18 (56%), 1/21 (5%), 91%, not calculated
tumour outcome (control, treated, inhibition, significance) (Carcinogen: METHYLAZOXYMETHANOL ACETATE, 592-62-1, Dose [Inhibitor]: 0, 400 PPM IN DIET FOR 46 WK BEGINNING 1 WK POST CARCINOGEN TREATMENT (STUDY DURATION: 49 WK), Route [Inhibitor]: ORAL, Species: RAT, Strain/Sex: ACI/FEMALE, Target Tissue: Type of Lesion: COLON: ADENOMA OR CARCINOMA, Dose [Carcinogen]: 25 MG/KG BW 1/WK FOR 3 WK): 15/18 (83%), 13/18 (72%), 13%, not significant
tumour outcome (control, treated, inhibition, significance) (Carcinogen: METHYLAZOXYMETHANOL ACETATE, 592-62-1, Dose [Inhibitor]: 0, 400 PPM IN DIET FOR 46 WK BEGINNING 1 WK POST CARCINOGEN TREATMENT (STUDY DURATION: 49 WK), Route [Inhibitor]: ORAL, Species: RAT, Strain/Sex: ACI/FEMALE, Target Tissue: Type of Lesion: SMALL INTESTINE: ADENOMA OR CARCINOMA, Dose [Carcinogen]: 25 MG/KG BW 1/WK FOR 3 WK): 11/18 (61%), 3/18 (17%), 72%, p<0.01
